Measured values published in patent publication US20260009064A1, “STEROL PRODUCTION IN YEAST” (APIX BIOSCIENCES, priority 2021, published 2026).

System: managed honeybee colonies
Test: Artificial diets with dried engineered yeast powder fed to managed honeybee colonies (APIDEA hives, three months)
Type: in vivo
Conditions: inferred from platform strain diet versus wild-type yeast diet
Protocol: Yeast strains ST4842 (wild-type, containing ergosterol), ST11005 (platform strain engineered to produce tetrahymanol, containing ergosterol and tetrahymanol) and ST12178 (mixed sterol producing strain producing desired phytosterols and tetrahymanol) were cultivated by 5-L fed-batch fermentation as described above. At the end of fermentation, the yeast biomass was recovered from the culture by centrifugation (4000×g, 20 min) and washed with deionized water. The biomass was heat-inactivated and dried (60° C. for a minimum of 24 h). The dried material was ground to a fine powder and stored at −20° C. until further use.
The yeast biomass was then incorporated at 20% w/w into a holidic diet designed to provide additional protein, lipid, sugar, vitamins and minerals. […]
Honeybee colonies were maintained for three months in APIDEA hives (Styrofoam queen mating mini nucleus hives, (Paynes Southdown Bee Farms Ltd, West Sussex. UK) made up of one brood box with five frames and a top feeder with a hole for petty delivery. Hives were maintained within a closed glasshouse environment designed to negate bee escape. Hives were distributed across two rooms of the glasshouse, with varying orientation. Feeders with 30% w/v sugar solution and water were distributed inside the glasshouse and replenished as required. Regular temperature and humidity measurements were recorded on a datalogger. […]

In the case of CC1(C)CCC[C@]2(C)[C@H]3CC[C@@H]4[C@@]5(C)CC[C@H](O)C(C)(C)[C@@H]5CC[C@@]4(C)[C@]3(C)CC[C@@H]12 [tetrahymanol], the “adverse effects in honeybee colonies” value is reported as “does not have adverse effects”.
